In patent publication US9534008B2, “Small molecule compounds that control plant- and insect-pathogenic nematodes” (California Institute of Technology, priority 2011, dated 2017):
“Also recorded” adds a separate entry of the source.

Experiments:
[1] = tested on: C. elegans hermaphrodites and males; experiment: Spot attraction assay; format: in vivo
Protocol: The spot attraction assays were conducted according to a previously reported method (Pungaliya et al., PNAS 106:7708-13 (2009); Srinivasan et al., Nature 454:1115-18 (2008), which are hereby incorporated by reference in their entirety). For both C. elegans hermaphrodites and males, 50-60 worms were harvested daily at the fourth larval stage (L4) and stored segregatedly by sex at 20° C. overnight, to be used as young adults the following day. For the competition experiments, two conditions were used: 120 nM ascr#3 and 10 nM icas#3 (Condition 1), or 12 μM ascr#3 and 1 μM icas#3 (Condition 2) in water containing 10% ethanol. Aliquots were stored at −20° C. in 20 μL tubes. 10% ethanol in water was used as control.
Attraction assays with hbas#3 were conducted as previously reported (Srinivasan et al., Nature 454:1115-18 (2008); Pungaliya et al., Proc. Natl. Acad. Sci. U.S.A. 106:7708-13 (2009), which are hereby incorporated by reference in their entirety). For the attraction assays, 50-60 hermaphrodite worms were harvested daily at the early fourth larval stage (L4) and stored at 20° C. overnight to be used as young adults the following day. Hbas#3 was dissolved in water containing 10% ethanol. Aliquots were stored at −20° C. in 20 μL tubes. 10% ethanol in water was used as control.

C. elegans [2] = experiment: Aggregation assay; format: in vivo
Protocol: Aggregation behavior of worms was measured using assays reported in de Bono & Bargmann, Cell 94:679-89 (1998), which is hereby incorporated by reference in its entirety. Aggregation assays were conducted on standard NGM plates. Plates containing indole ascarosides were made by adding the indole ascaroside stock solution to the NGM media before they were poured onto the plates. These plates were dried at room temperature for 2 to 3 days. Control plates were treated similarly, except that ethanol solutions instead of icas solutions were added to the plates, corresponding to the amount of ethanol introduced via the icas solutions. Final ethanol concentrations of the plates were below 0.1% for all conditions. After drying, both control plates and plates containing indole ascarosides were seeded with 150 μl of an overnight culture of E. coli OP50 using a micropipette, and were allowed to dry for 2 days at room temperature. For “low worm density” experiments, 20 worms were placed onto the lawn and left at 20° C. for 3 hours. For “high worm density” experiments, approximately 120 worms were placed onto the bacterial lawn and left at 20° C. for 3 hours. Aggregation behavior was quantified as the number of animals that were in touch with two or more animals at greater than 50% of their body length.

P. redivivus females = experiment: Retention assay, P. redivivus females; conditions: in vivo
Protocol: OP50 E. coli was grown on a standard 5 cm agar plate (made with standard Nematode Growth Medium). The bacterial lawn was 16 mm in diameter and was grown overnight at 20° C. before being used in trials. Two 4 mm spots (0.6 μL) were placed on opposite sides of the bacterial lawn (using a transparent template to guide spot placement), and several minutes elapsed for the liquid to settle in before placing nematodes down on the assay. Recording began immediately upon worm placement. […]
Nematodes were isolated by gender at the L4 stage the day before being used in trials as developed adults. […] Trials were recorded for 20 minutes, and frames were collected for analysis at 1 frame per second. […]
A video camera attached to the microscope produced a digital video stream, which was then analyzed. The ratio of the time the average worm spent in each region of interest was calculated for every trial. […] Thus worm pixels were counted instead of whole worms, allowing fractions of a worm in the region of interest to be taken into account. It also eliminated the need for a shape-based worm identification algorithm, and allowed each frame to be analyzed independently. […] Thus, the ratio of worm-pixels to all pixels inside the region of interest can be calculated to produce the worm-occupancy ratio. […]

C. elegans [3] = experiment: Ascaroside function (Table 12), C. elegans; format: in vivo, Caenorhabditis elegans; parameters: key to Attract Females/Herm. / Promote Dauer Formation / Attract Males: A very strong result of affecting nematode behavior is designated in the table as “strong.”
In short: (§1)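 Individual ascarosides and ascaroside blends were given to the nematodes, and their effect on nematode behavior was scored. A very strong behavioral effect was rated "strong."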

Panagrellus redivivus = experiment: Ascaroside function (Table 12), Panagrellus redivivus; format: in vivo
In short: as §1

S. feltiae = experiment: Ascaroside function (Table 12), S. feltiae; format: in vivo, Steinernema feltiae
Protocol: Various ascarosides and ascaroside blends were administered to various nematodes described below (Table 12). […] A very strong result of affecting nematode behavior is designated in the table as “strong.”

C. elegans [4] = conditions: in vivo; cited from earlier work
C. elegans [5] = conditions: in vivo; cited from earlier work; remark: listed apart in the source

C[C@H](CCC(=O)O)O[C@@H]1O[C@@H](C)[C@H](OC(=O)c2c[nH]c3ccccc23)C[C@H]1O [icas#9]
attraction of both C. elegans sexes ([1]; high concentrations, 1 μmol, N2 hermaphrodites and him-5 males): attractive; also recorded: attracted | attraction of males ([1]; low concentrations, males): but not males | active concentration window (hermaphrodite attraction and aggregation) (C. elegans [2]; in vivo): femtomolar to picomolar; also recorded: fM-pM | aggregation of solitary and social hermaphrodites (C. elegans [2]; low worm density (20 worms per 5 cm plate)): increased aggregation | response of P. redivivus females (P. redivivus females): repealed | Attract Females/Herm. (C. elegans [3]): ([strong]) | Promote Dauer Formation (C. elegans [3]): icas#9 | Repel Females/Herm. (Panagrellus redivivus): icas#9 | Dispersal (of dauer larvae, infectious juveniles) (S. feltiae): icas#9 | aggregation in C. elegans (C. elegans [4]): aggregating stimulant | dauer-inducing activity (C. elegans [5]): moderate; also recorded: promote dauer entry | shape of dauer response curve (C. elegans [5]): bell-shaped
